Among the test systems are 786-0 renal; DU-145 prostate; HOP-62 NSCLC; IGROV1 ovarian; MALME-3M melanoma; NCI-H226 lung; RPMI-8226 leukemia; SF-268 CNS; SF-295 CNS; SK-MEL-28 melanoma; SNB-75 CNS.
Common to all, as to assay: growth of human tumour cells (NCI), 48 h

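In this assay, cells in 96-well plates receive the compound at five concentrations for 48 hours. Endpoints are linearly interpolated between the surrounding concentrations. TGI is the concentration that stops growth completely.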 Where only a bound is given, the exact number is not on record here.

As for `O=c1oc2cc(O)ccc2c(O)c1C(c1ccc(/C=C/c2ccccc2)cc1)c1c(O)c2ccc(O)cc2oc1=O`, the TGI in the assay on 786-0 renal, in the assay with DU-145 prostate, in the assay on HOP-62 NSCLC, in the assay on IGROV1 ovarian, in the assay on MALME-3M melanoma and in the assay on NCI-H226 lung was above 100 µM in each case. The TGI was above 100 µM with RPMI-8226 leukemia; above 100 µM in the assay with SF-268 CNS; above 100 µM with SF-295 CNS; 60.5 µM in the assay with SK-MEL-28 melanoma; above 100 µM in the assay with SNB-75 CNS.
Turning to `COc1ccccc1Nc1nc(N)nc(N)c1N`, the TGI in the assay with 786-0 renal, with DU-145 prostate, in the assay with HOP-62 NSCLC, in the assay with IGROV1 ovarian, with MALME-3M melanoma and in the assay on NCI-H226 lung was above 100 µM throughout. The TGI with RPMI-8226 leukemia is 82.7 µM; in the assay on SF-268 CNS, above 100 µM; with SF-295 CNS, 68.5 µM; in the assay with SK-MEL-28 melanoma, above 100 µM; with SNB-75 CNS it was above 100 µM.
For the molecule `C(#C[C@@]12CCC[C@@H]1NCO2)c1ccc2c(c1)OCO2`, the TGI with 786-0 renal, in the assay with DU-145 prostate, with HOP-62 NSCLC, in the assay on IGROV1 ovarian, with MALME-3M melanoma and in the assay with NCI-H226 lung was above 100 µM each time. For the same molecule, the TGI in the assay with RPMI-8226 leukemia, in the assay with SF-268 CNS, in the assay on SF-295 CNS, in the assay on SK-MEL-28 melanoma and with SNB-75 CNS was above 100 µM throughout.
On to `NS(=O)(=O)c1ccc(NCc2cccc3c(=O)c4ccc(Cl)cc4oc23)cc1`, for which the TGI with 786-0 renal was above 100 µM; with DU-145 prostate it was above 100 µM; in the assay with HOP-62 NSCLC, above 100 µM; in the assay on IGROV1 ovarian, above 68.8 µM; with MALME-3M melanoma, above 66.5 µM; with NCI-H226 lung, above 100 µM. For the same molecule, the TGI in the assay with RPMI-8226 leukemia is above 92.2 µM; with SF-268 CNS it was 64.4 µM; in the assay with SF-295 CNS, above 100 µM; with SK-MEL-28 melanoma it was above 100 µM; with SNB-75 CNS, above 96.6 µM.
Consider `CC(C)=CCN1c2ccccc2[C@@]2(CC=C(C)C)CCN(C)[C@@H]12`, for which the TGI was 53 µM in the assay on 786-0 renal; above 100 µM with DU-145 prostate; 55 µM with HOP-62 NSCLC; above 100 µM with IGROV1 ovarian; 38.4 µM in the assay on MALME-3M melanoma; above 100 µM with NCI-H226 lung. Further, the TGI in the assay with RPMI-8226 leukemia is 51 µM; in the assay on SF-268 CNS, above 100 µM; with SF-295 CNS it was 46.6 µM; in the assay with SK-MEL-28 melanoma, above 100 µM; in the assay with SNB-75 CNS, above 100 µM.
`CC(=O)OC(C(=O)NNC(=O)OC(C)(C)C)c1ccccc1` (centres undefined): the TGI with 786-0 renal, in the assay with DU-145 prostate, in the assay with HOP-62 NSCLC, with IGROV1 ovarian, with MALME-3M melanoma and in the assay with NCI-H226 lung was above 100 µM in each case. Further, the TGI in the assay with RPMI-8226 leukemia, with SF-268 CNS, in the assay with SF-295 CNS, with SK-MEL-28 melanoma and in the assay with SNB-75 CNS was above 100 µM in each case.
As to `COC(=O)[C@@H](N1C(=O)c2ccccc2C1=O)C1(C)CC(Cl)=NO1` (some centres undefined), the TGI in the assay with 786-0 renal was above 100 µM; in the assay on DU-145 prostate, above 100 µM; in the assay on HOP-62 NSCLC, 38.9 µM; in the assay on IGROV1 ovarian, 58.2 µM; in the assay on MALME-3M melanoma it was above 100 µM; with NCI-H226 lung it was above 100 µM. For the same molecule, the TGI is above 100 µM in the assay with RPMI-8226 leukemia; 76.9 µM in the assay on SF-268 CNS; 74.3 µM with SF-295 CNS; above 100 µM in the assay on SK-MEL-28 melanoma; 35.9 µM in the assay with SNB-75 CNS.
With `COc1ccc(Cc2nc3cc(C(F)(F)F)ccc3n2C[C@@H]2CCCN3CCCCC23)cc1` (some centres undefined), the TGI worked out at 20.3 µM in the assay on 786-0 renal; 26.6 µM in the assay on DU-145 prostate; 23.2 µM in the assay with HOP-62 NSCLC; 15.7 µM with IGROV1 ovarian; 8.88 µM in the assay on MALME-3M melanoma; 37 µM in the assay with NCI-H226 lung. Further, the TGI in the assay on RPMI-8226 leukemia was 94.8 µM; in the assay on SF-268 CNS, 19 µM; in the assay with SF-295 CNS it was 12.3 µM; in the assay with SK-MEL-28 melanoma, 27.6 µM; with SNB-75 CNS, 77.4 µM.
Regarding `CCO/C=N\C1=C(C#N)SC2=N/C(=C\c3ccco3)C(=O)N21`, the TGI in the assay with 786-0 renal, with DU-145 prostate, in the assay with HOP-62 NSCLC, in the assay on IGROV1 ovarian, in the assay on MALME-3M melanoma and in the assay with NCI-H226 lung was above 100 µM each time. The TGI in the assay on RPMI-8226 leukemia, with SF-268 CNS, in the assay with SF-295 CNS, in the assay on SK-MEL-28 melanoma and in the assay with SNB-75 CNS was above 100 µM each time.
